Measurements published in PMC8330100, “Similarities and differences in the localization, trafficking, and function of P-glycoprotein in MDR1-EGFP-transduced rat versus human brain capillary endothelial cell lines” (Fluids and Barriers of the CNS, 2021).

Experiments:
Pgp in RBE4-WT cells = test: Rhodamine 123 uptake/accumulation assay, RBE4-WT cells; type: cell-based, rat
Method: The functionality of Pgp in RBE4-WT, RBE4-MDR1-EGFP, hCMEC/D3-WT, hCMEC/D3-MDR1-EGFP cells, and primary rBCECs was analyzed by measuring the uptake of the fluorescent Pgp substrate Rho123 (Sigma-Aldrich). Cells were grown on 6-well plates and cultured for seven days in the presence or absence of doxycycline (1 µg/mL, Biochrom). […] Afterward, Rho123 (5 µM, dissolved in ethanol) was added and cells were incubated for another two hours. Rho123 transport was terminated by washing the cells twice with ice-cold PBS. Intracellular Rho123 concentration was determined by cell lysis in standard lysis buffer (25 mM Tris, 50 mM NaCl, 0.5% (w/v) sodium deoxycholate, 0.5% (w/v) Triton X-100) and measurement of fluorescence intensity with the FLUOstar OPTIMA (ex.: 485 nm, em.: 520 nm; BMG Labtech). Protein concentrations were determined using a BCA assay kit (Thermo Fisher Scientific). Rho123 uptake was obtained for each condition in triplicates and calculated as absolute fluorescence per mg protein. Additionally, Pgp functionality was expressed as multidrug resistance activity factor (MAF) as described by Huber et al.. This factor describes Pgp efflux activity based on differences in intracellular Rho123 accumulation in cells after Pgp inhibition compared to cells with active Pgp-mediated efflux. Thus, higher MAF values correlate with increased Pgp activity. For better comparison, differences in Rho123 accumulation are normalized to intracellular Rho123 levels in inhibitor-treated cells. MAF values for Pgp were calculated according to Huber et al. 2012 utilizing the following equation: MAF (%) = 100 · (MFITQ − MFI0)/(MFITQ) where MFITQ and MFI0 represent the mean fluorescence intensity of intracellular Rho123 in tariquidar (TQ)-treated and non-treated cells, respectively.

Pgp in primary rBCECs = test: Rhodamine 123 uptake/accumulation assay, primary rBCECs; type: cell-based, rat
From the text: The RBE4 and hCMEC/D3 cell lines used here are immortalized, which has the advantage that these cells are stable for several passages and may yield a large number of endothelial cells with the same genetic and phenotypical characteristics. The immortalization status, however, causes several alterations as compared to the native original cell type, including low junctional tightness of cell monolayers and reduced expression of efflux transporters such as Pgp. Therefore, for comparison with the MDR1-EGFP transduced rat RBE4 cells, experiments were also performed with primary cultured rat brain capillary endothelial cells (rBCECs). As described by us previously, rBCECs were prepared following a protocol by Régina et al. and Perrière et al. from 2 to 3 weeks old Wistar rats (obtained from Charles River; Sulzfeld, Germany). All animals were treated according to protocols evaluated and approved by the ethical committee of our university. In short, meninges were removed from cerebral cortices in phosphate-buffered saline (PBS) with 1% penicillin (100 U/mL)/streptomycin (100 μg/mL) (Biochrom AG) on ice. Subsequently, cortices were mechanically dissociated with scalpels. […]
The functionality of Pgp in RBE4-WT, RBE4-MDR1-EGFP, hCMEC/D3-WT, hCMEC/D3-MDR1-EGFP cells, and primary rBCECs was analyzed by measuring the uptake of the fluorescent Pgp substrate Rho123 (Sigma-Aldrich). […] Intracellular Rho123 concentration was determined by cell lysis in standard lysis buffer (25 mM Tris, 50 mM NaCl, 0.5% (w/v) sodium deoxycholate, 0.5% (w/v) Triton X-100) and measurement of fluorescence intensity with the FLUOstar OPTIMA (ex.: 485 nm, em.: 520 nm; BMG Labtech). Protein concentrations were determined using a BCA assay kit (Thermo Fisher Scientific). Rho123 uptake was obtained for each condition in triplicates and calculated as absolute fluorescence per mg protein. Additionally, Pgp functionality was expressed as multidrug resistance activity factor (MAF) as described by Huber et al.. […]

[1] = tested on: Pgp in primary rBCEC monolayers; test: Concentration equilibrium transport assay (CETA), primary rBCEC monolayers; type: in vitro ADME, rat; conditions: Rho123 2 µM; primary rBCECs
Method: For these experiments, a concentration equilibrium transport assay (CETA) was used, which is more sensitive to identify Pgp substrates than conventional bidirectional (concentration gradient) transport assays. In the CETA, the drug is added to both (apical and basolateral) sides of the monolayer, so that the initial drug concentration is the same in both compartments, thereby minimizing the effect of passive diffusion across the cell monolayer.
Additionally, vectorial drug transport across RBE4-MDR1-EGFP, hCMEC/D3-MDR1-EGFP, LLC-MDR1, and primary rBCEC monolayers was studied using 2 µM Rho123 as a fluorescent Pgp substrate essentially following the same protocol as described for [^3H]dLop. Transport was measured using a FLUOstar OPTIMA fluorescence reader (ex.: 485 nm, em.: 520 nm; BMG Labtech), analyzing samples from basolateral and apical compartments collected at the various time points.

[2] = target: Pgp in LLC-MDR1 monolayers (Homo sapiens, UniProt P08183); conditions: Rho123 2 µM
Chain of Pgp in LLC-MDR1 monolayers (P08183 whole entry): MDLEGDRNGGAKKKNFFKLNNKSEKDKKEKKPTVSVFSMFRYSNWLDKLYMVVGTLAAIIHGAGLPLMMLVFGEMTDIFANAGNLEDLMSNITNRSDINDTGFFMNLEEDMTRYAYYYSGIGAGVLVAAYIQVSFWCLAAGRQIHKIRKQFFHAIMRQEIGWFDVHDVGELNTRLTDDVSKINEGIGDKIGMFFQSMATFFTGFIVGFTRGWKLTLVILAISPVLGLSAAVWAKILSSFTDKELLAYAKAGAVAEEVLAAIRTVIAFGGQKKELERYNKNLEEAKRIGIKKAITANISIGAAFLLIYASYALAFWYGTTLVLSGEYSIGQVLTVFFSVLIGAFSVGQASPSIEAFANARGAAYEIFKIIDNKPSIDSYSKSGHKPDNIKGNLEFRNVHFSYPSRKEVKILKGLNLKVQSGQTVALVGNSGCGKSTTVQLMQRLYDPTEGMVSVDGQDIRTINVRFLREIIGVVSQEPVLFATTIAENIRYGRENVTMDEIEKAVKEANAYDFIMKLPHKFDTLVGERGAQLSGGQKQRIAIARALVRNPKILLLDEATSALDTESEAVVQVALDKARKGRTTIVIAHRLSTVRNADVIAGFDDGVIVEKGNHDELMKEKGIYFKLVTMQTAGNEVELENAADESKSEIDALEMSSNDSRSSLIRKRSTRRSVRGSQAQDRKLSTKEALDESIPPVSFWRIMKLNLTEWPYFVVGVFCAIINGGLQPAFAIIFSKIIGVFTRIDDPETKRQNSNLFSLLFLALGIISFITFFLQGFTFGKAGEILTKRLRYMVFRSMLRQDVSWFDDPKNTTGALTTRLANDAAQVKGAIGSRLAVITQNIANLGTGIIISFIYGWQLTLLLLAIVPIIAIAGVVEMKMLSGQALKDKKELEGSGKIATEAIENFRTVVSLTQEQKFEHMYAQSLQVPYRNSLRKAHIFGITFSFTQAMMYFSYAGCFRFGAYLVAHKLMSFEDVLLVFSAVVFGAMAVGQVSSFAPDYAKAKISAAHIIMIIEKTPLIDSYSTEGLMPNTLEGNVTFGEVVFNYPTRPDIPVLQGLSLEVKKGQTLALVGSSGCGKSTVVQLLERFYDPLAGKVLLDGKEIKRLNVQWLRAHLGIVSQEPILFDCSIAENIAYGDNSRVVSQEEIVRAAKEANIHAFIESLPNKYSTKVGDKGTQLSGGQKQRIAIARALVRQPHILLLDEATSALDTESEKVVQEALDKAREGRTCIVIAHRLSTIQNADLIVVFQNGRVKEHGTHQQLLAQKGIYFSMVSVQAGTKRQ

[3] = Rho123 5 µM, 2 h, without tariquidar
[4] = with vs without tariquidar 0.5 µM

For COC(=O)c1ccccc1-c1c2ccc(=N)cc-2oc2cc(N)ccc12 [Rho123, rhodamine 123], the “intracellular Rho123 accumulation” value (Pgp in RBE4-WT cells; [3]) was 86,513 ± 2021 absolute fluorescence per mg p, the “multidrug resistance activity factor (MAF) from intracellular Rho123 accumulation” value (Pgp in RBE4-WT cells; [4]) was 37.5% ± 4.2 and the “intracellular Rho123 accumulation” value (Pgp in primary rBCECs; [3]) was 56,482 ± 2456 absolute fluorescence per mg p. The “multidrug resistance activity factor (MAF) from intracellular Rho123 accumulation” value (Pgp in primary rBCECs; [4]) was 61.2% ± 2.7, the “vectorial transport in CETA (apical vs basolateral concentrations)” value [1] was “significantly higher in the apical vs. basolateral chambers” and the “vectorial transport in CETA” value [2] was “significant vectorial transport was observed”.
